Laboratory results published in patent US10131652B2, “Pyrimidinyloxy benzene derivatives as herbicides” (E. I. DU PONT DE NEMOURS AND COMPANY, priority 2014, dated 2018).

Assays:
Test in all cases: Test D pre-/postemergence plant response
Type in all cases: in vivo
[1] = system: johnsongrass (Sorghum halepense); settings: Postemergence; for Plant response rating, Johnsongrass: scale 0 to 100, 0 no effect, 100 complete control
Method in brief: (§1)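 Test chemicals were formulated in a non-phytotoxic solvent mixture containing surfactant and applied either preemergence to seeds in loam–sand soil or postemergence to plants 2 to 18 cm tall (1- to 4-leaf stage). Response was rated visually against controls after 13 to 15 days, from 0 (none) to 100 (complete control).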

[2] = system: Italian ryegrass (Lolium multiflorum); settings: Postemergence; for Plant response rating, Ryegrass, Italian: scale 0 to 100, 0 no effect, 100 complete control
Method in brief: as §1

[3] = system: lambsquarters (Chenopodium album); settings: Postemergence; for Plant response rating, Lambsquarters: scale 0 to 100, 0 no effect, 100 complete control
Method in brief: as §1

[4] = system: blackgrass (Alopecurus myosuroides); settings: Postemergence; for Blackgrass plant response rating: scale 0 to 100 (0 no effect, 100 complete control); for Plant response rating, Blackgrass: scale 0 to 100, 0 no effect, 100 complete control
Method in brief: as §1

[5] = system: soybean (Glycine max); settings: Postemergence; for Plant response rating, Soybean: scale 0 to 100, 0 no effect, 100 complete control
Method in brief: as §1

[6] = system: waterhemp (common waterhemp, Amaranthus rudis); settings: Postemergence; for Plant response rating, Waterhemp: scale 0 to 100, 0 no effect, 100 complete control
Method in brief: as §1

[7] = system: ragweed (common ragweed, Ambrosia elatior); settings: Postemergence; for Plant response rating, Ragweed: scale 0 to 100, 0 no effect, 100 complete control
Method in brief: as §1

[8] = system: velvetleaf (Abutilon theophrasti); settings: Postemergence; for Plant response rating, Velvetleaf: scale 0 to 100, 0 no effect, 100 complete control
Method in brief: as §1

[9] = system: winter wheat (Triticum aestivum); settings: Postemergence; for Plant response rating, Wheat: scale 0 to 100, 0 no effect, 100 complete control
Method in brief: as §1

[10] = system: giant foxtail (Setaria faberii); settings: Postemergence; for Foxtail, Giant plant response rating: scale 0 to 100 (0 no effect, 100 complete control); for Plant response rating, Foxtail, Giant: scale 0 to 100, 0 no effect, 100 complete control
Method in brief: as §1

[11] = system: galium (catchweed bedstraw, Galium aparine); settings: Postemergence; for Plant response rating, Galium: scale 0 to 100, 0 no effect, 100 complete control
Method in brief: as §1

[12] = system: pigweed (Amaranthus retroflexus); settings: Postemergence; for Plant response rating, Pigweed: scale 0 to 100, 0 no effect, 100 complete control
Method in brief: as §1

[13] = system: large (Lg) crabgrass (Digitaria sanguinalis); settings: Postemergence; for Crabgrass, Large plant response rating: scale 0 to 100 (0 no effect, 100 complete control); for Plant response rating, Crabgrass, Large: scale 0 to 100, 0 no effect, 100 complete control
Method in brief: as §1

[14] = system: morningglory (Ipomoea coccinea); settings: Postemergence; for Plant response rating, Morningglory: scale 0 to 100, 0 no effect, 100 complete control
Method in brief: as §1

[15] = system: yellow nutsedge (Cyperus esculentus); settings: Postemergence; for Plant response rating, Nutsedge, Yellow: scale 0 to 100, 0 no effect, 100 complete control
Method in brief: as §1

[16] = system: barnyardgrass (Echinochloa crus-galli); settings: Postemergence; for Barnyardgrass plant response rating: scale 0 to 100 (0 no effect, 100 complete control); for Plant response rating, Barnyardgrass: scale 0 to 100, 0 no effect, 100 complete control
Method in brief: as §1

[17] = system: oilseed rape (Brassica napus); settings: Postemergence; for Plant response rating, Oilseed Rape: scale 0 to 100, 0 no effect, 100 complete control
Method in brief: as §1

[18] = system: corn (Zea mays); settings: Postemergence; for Corn plant response rating: scale 0 to 100 (0 no effect, 100 complete control); for Plant response rating, Corn: scale 0 to 100, 0 no effect, 100 complete control
Method in brief: as §1

[19] = 31 g ai/ha, scale 0 to 100 (0 no effect, 100 complete control)

CC(F)(F)c1cc(-c2ccccc2Oc2ncc(Br)cn2)no1 [Compound 149]
100: Plant response rating, Waterhemp ([6]; 125 g ai/ha)
30: Plant response rating, Blackgrass ([4]; 125 g ai/ha) | Ragweed plant response rating [7, 19] | Plant response rating, Ragweed ([7]; 62 g ai/ha) | Velvetleaf plant response rating [8, 19] | Plant response rating, Foxtail, Giant ([10]; 125 g ai/ha) | Oilseed Rape plant response rating [17, 19]
10: Johnsongrass plant response rating [1, 19] | Plant response rating, Johnsongrass ([1]; 125 g ai/ha) | Plant response rating, Wheat ([9]; 125 g ai/ha) | Foxtail, Giant plant response rating ([10]; 31 g ai/ha) | Plant response rating, Foxtail, Giant ([10]; 62 g ai/ha) | Plant response rating, Crabgrass, Large ([13]; 62 g ai/ha) | Plant response rating, Barnyardgrass ([16]; 125 g ai/ha)
60: Galium plant response rating [11, 19] | Morningglory plant response rating [14, 19] | Plant response rating, Oilseed Rape ([17]; 62 g ai/ha)
90: Plant response rating, Pigweed ([12]; 125 g ai/ha)
85: Plant response rating, Lambsquarters ([3]; 125 g ai/ha) | Pigweed plant response rating [12, 19] | Plant response rating, Oilseed Rape ([17]; 125 g ai/ha)
80: Plant response rating, Lambsquarters ([3]; 62 g ai/ha) | Waterhemp plant response rating [6, 19] | Plant response rating, Morningglory ([14]; 125 g ai/ha)
45: Plant response rating, Ragweed ([7]; 125 g ai/ha)
15: Plant response rating, Johnsongrass ([1]; 62 g ai/ha) | Plant response rating, Crabgrass, Large ([13]; 125 g ai/ha)
95: Plant response rating, Waterhemp ([6]; 62 g ai/ha) | Plant response rating, Galium ([11]; 125 g ai/ha) | Plant response rating, Pigweed ([12]; 62 g ai/ha)
40: Soybean plant response rating [5, 19] | Plant response rating, Velvetleaf ([8]; 62 g ai/ha)
0: Ryegrass, Italian plant response rating [2, 19] | Plant response rating, Ryegrass, Italian ([2]; 62 g ai/ha) | Plant response rating, Ryegrass, Italian ([2]; 125 g ai/ha) | Blackgrass plant response rating ([4]; 16 g ai/ha) | Blackgrass plant response rating ([4]; 31 g ai/ha) | Plant response rating, Blackgrass ([4]; 62 g ai/ha) | Wheat plant response rating [9, 19] | Plant response rating, Wheat ([9]; 62 g ai/ha) | Nutsedge, Yellow plant response rating [15, 19] | Corn plant response rating ([18]; 16 g ai/ha)
70: Lambsquarters plant response rating [3, 19] | Plant response rating, Galium ([11]; 62 g ai/ha) | Plant response rating, Morningglory ([14]; 62 g ai/ha)
65: Plant response rating, Soybean ([5]; 62 g ai/ha) | Plant response rating, Soybean ([5]; 125 g ai/ha) | Plant response rating, Velvetleaf ([8]; 125 g ai/ha)
5: Foxtail, Giant plant response rating ([10]; 16 g ai/ha) | Crabgrass, Large plant response rating ([13]; 16 g ai/ha) | Crabgrass, Large plant response rating ([13]; 31 g ai/ha) | Plant response rating, Nutsedge, Yellow ([15]; 62 g ai/ha) | Plant response rating, Nutsedge, Yellow ([15]; 125 g ai/ha) | Barnyardgrass plant response rating ([16]; 16 g ai/ha) | Barnyardgrass plant response rating ([16]; 31 g ai/ha) | Plant response rating, Barnyardgrass ([16]; 62 g ai/ha) | Corn plant response rating ([18]; 31 g ai/ha) | Plant response rating, Corn ([18]; 62 g ai/ha) | Plant response rating, Corn ([18]; 125 g ai/ha)
